Measured values: patent US5106407A, “Iodones and methods for antimicrobial use” (priority 1989, dated 1992)

What was measured:
Assay in all cases: minimum inhibitory concentration (MIC), agar dilution
Format in all cases: cell-based
[1] = tested on: Bacillus subtilis; details: Bacillus subtilis, ATCC8473; ATCC 8473; nutrient agar pH 6.8; read-out: MIC
Experimental: (§1) The minimum inhibitory concentration (MIC) for the compound of Example 19, i.e., (2-nitrophenyl)-iodonium 2,2-dimethyl-4,6-dioxo-1,3-dioxan-5-ylide was determined for 9 bacteria (using nutrient agar) and 5 yeast and fungi (using malt yeast agar). A one percent solution of this test compound (i.e., the compound of Example 19) was prepared in a mixture of acetone-water. Nutrient agar was prepared at pH 6.8 using deionized water according to standard Difco procedures. Malt yeast agar was prepared by adding 3 g Bacto yeast extract and 42 g Bacto Malt agar per liter of deionized water. The agar (nutrient agar when testing with bacteria and malt yeast agar when testing with yeast and fungi) was dispensed in 30 mL aliquots into 25×200 millimeter (mm) test tubes, capped and autoclaved for 15 min at 115° C. The test tubes containing the agar were cooled in a water bath until the temperature of the agar was 48° C. and then an appropriate amount of the one percent solution of the test compound was added (except in the controls where no test compound was added with the acetone-water) to the respective test tubes so that final concentrations of 500, 250, 100, 50, 25, 10, 5, 2.5, 1.0 and 0 parts per million (ppm) of the test compound in the agar were obtained. The agar solutions were each mixed and poured into individual petri plates so that each petri plate contained agar having a known concentration of test compound dispersed therein. After drying for 24 hr, the petri plates were inoculated with bacteria when the petri plates contained nutrient broth agar or with fungi and yeast when the petri plates contained malt yeast agar.
(§2) The inoculation with bacteria was accomplished using the following procedure. Twenty-four hr cultures of each of the bacteria were prepared by incubating the respective bacteria in tubes containing nutrient broth for 24 hr at 30° C. in a shaker. Dilutions of each of the 24 hr cultures were made so that 9 separate suspensions (one for each of the 9 test bacteria) were made, each containing about 10^8 colony forming units (CFU) per mL of suspension of a particular bacteria. Aliquots of 0.3 mL of each of the above suspensions were used to fill individual wells of a Steer's Replicator. For each microbial suspension, 0.3 mL was used to fill 3 wells (i.e., 3 wells of 0.3 mL each) so that for the 9 different bacteria 27 wells were filled. The Steer's Replicator was then used to inoculate the petri plates.
(§3) The petri plates were incubated at 30° C. for 48 hr and then read to determine if the test compound (i.e., the compound of Example 19) which was incorporated into the agar prevented growth of the respective bacteria. The minimum inhibitory concentration (MIC) for each bacteria was defined as the lowest concentration of the test compound which prevented growth of that bacteria.
(§4) In a similar procedure, the MIC (in ppm) of the compound of Example 11 (i.e., (2-nitrophenyl)-iodonium 2,6-dioxocyclohexylide) for various organisms was determined at an acid pH (about 6.8) and at an alkaline pH (about 8.2).
(§5) Using similar procedures, the MIC's (in ppm) of various compounds of Formula I and/or Formula II were determined for the organisms Enterobacter aerogenes and Bacillus subtilis in a neutral solution (pH about 6.8) and in an alkaline medium (pH about 8.2).

[2] = tested on: Enterobacter aerogenes; details: Klebsiella aerogenes, ATCC13048; ATCC 13048; nutrient agar pH 6.8; read-out: MIC
Experimental: as §1, §2, §3, §4, §5

[3] = tested on: Staphylococcus aureus; details: Staphylococcus aureus, ATCC6538; ATCC 6538; nutrient agar pH 6.8; read-out: MIC
Experimental: as §1, §2, §3, §4

[4] = tested on: Pseudomonas aeruginosa PRD-10; details: Pseudomonas aeruginosa, ATCC15442; ATCC 15442; nutrient agar pH 6.8; read-out: MIC
Experimental: as §1, §2, §3, §4

[5] = tested on: Klebsiella pneumoniae; details: Klebsiella pneumoniae, ATCC8308; ATCC 8308; nutrient agar pH 6.8; read-out: MIC
Experimental: as §1, §2, §3, §4

[6] = tested on: Salmonella choleraesuis; details: Salmonella enterica, ATCC 10708 / CHOLERAESUIS, nutrient agar pH 6.8, read-out: MIC
Experimental: as §1, §2, §3, §4

[7] = tested on: Escherichia coli; details: Escherichia coli, ATCC11229; ATCC 11229; nutrient agar pH 6.8; read-out: MIC
Experimental: as §1, §2, §3, §4

[8] = tested on: Proteus vulgaris; details: Proteus vulgaris, ATCC881; ATCC 881; nutrient agar pH 6.8; read-out: MIC
Experimental: as §1, §2, §3, §4

[9] = tested on: Pseudomonas aeruginosa; details: Pseudomonas aeruginosa, ATCC10145; ATCC 10145; nutrient agar pH 6.8; read-out: MIC
Experimental: as §1, §2, §3, §4

Measured: MIC

CC1(C)OC(=O)[C-]([I+]c2ccccc2[N+](=O)[O-])C(=O)O1 [Example 19, (2-Nitrophenyl)-iodonium 2,2-dimethyl-4,6-dioxo-1,3-dioxan-5-ylide]
1 µg/mL: [2]
10 µg/mL: [4] | [9]
≤ 1 µg/mL: all other assays above
